Reference: patent US5104884A, “Triazolyl quinoline derivatives” (Alkaloida Vegyeszeti Gyar, priority 1985, dated 1992)

Assays:
[1] = hot (56° C.) plate test on mice (analgesic effect); assay type: in vivo, male and female CFLP strain mice; details: Mus musculus, po, 1 h, read-out: Lengthening of reaction time in %; for change in vivo at 25 mg/kg: 25 mg/kg p.o.; for change in vivo at 50 mg/kg: 50 mg/kg p.o.; for change in vivo at 100 mg/kg: 100 mg/kg p.o.
Procedure: The analgesic effect of the compounds of the present invention is tested according to the hot (56° C.) plate test on male and female CFLP strain mice weighing 18-22 g. The point of time of the appearence of the deterring reaction Abwehrreaktion is determined and related to the latent time measured on the control group Woolfe and McDonald 1944. At least 10 animals are used per dose. […] The test is carried out on separated male Wistar rats weighing 180-210 g and fasted for 16 hours. The test compounds are suspended in 1% carboxy methyl cellulose and administered orally in a dose of 10 ml/kg.

[2] = adjuvant induced arthritis in rats, method of Newbold; assay type: in vivo, male Wistar rats; details: Rattus norvegicus, po, 504 h, 25 mg/kg p.o. daily for two weeks, read-out: Percental inhibition of the growth of paw volume, on the 21st day
Procedure: According to the method of Newbold 0.1 ml of Freund complet adjuvant (Difco Lab. Mich. […] The volume of the hind paws is measured before and 21 days after the administration of the adjuvant with the aid of a mercury plethysmometer. […] In Table II the "percental inhibition of the growth of paw volume" relates to the value determined on the 21st day. […] The tests show furthermore that the compounds of the present invention are active not only in healing morphological deformations but effect in a desirable and useful manner the functional condition and fitness of the feet, moreover the general physical state and condition of the animals, too.

[3] = carrageenin edema inhibition in rats (antiphlogistic effect), Winter method; assay type: in vivo, male Wistar rats; details: Rattus norvegicus, po, rats; for inhibition in vivo at 12.5 mg/kg: 12.5 mg/kg p.o.; for inhibition in vivo at 12.5 mg/kg / inhibition in vivo at 25 mg/kg / inhibition in vivo at 50 mg/kg / inhibition in vivo at 100 mg/kg: read-out: Percental inhibition of paw volume; for inhibition in vivo at 25 mg/kg: 25 mg/kg p.o.; for inhibition in vivo at 50 mg/kg: 50 mg/kg p.o.; for ED50: carrageenin edema, p.o., regression analysis, read-out: ED50; for inhibition in vivo at 100 mg/kg: 100 mg/kg p.o.
Procedure: Thus the orally administered compounds of the general Formula (I) efficiently reduce acute inflammatory processes. According to the method of Winter [Proc. Soc. Exp. Biol. Med. 111, 544 (1962)] carrageenin edema is induced and evaluated on male Wistar rats fasted for 16 hours body weight 160-180 g. Percental inhibition is calculated from the average edema values of the groups treated with the test compound on the one hand and with carrier carboxy methyl cellulose, CMC; control on the other. ED50 values are determined by means of regression analysis of the inhibition values. The test compounds are administered through a stomach canule in the form of a 1% carboxy methyl cellulose (CMC) suspension, one hour before introducing the carrageenin injection.

[4] = system: Erysiphe graminis f. sp. tritici; test: antifungal effect on Erysiphe graminis (powdery mildew on wheat plants, glasshouse); assay type: in vivo; details: Blumeria graminis; for inhibition at 25 µg/mL: 25 μg/ml; for inhibition at 50 µg/mL: 50 μg/ml; for inhibition at 100 µg/mL: 100 μg/ml; for inhibition at 150 µg/mL: 150 μg/ml; for inhibition at 200 µg/mL: 200 μg/ml; for inhibition at 400 µg/mL: 400 μg/ml
Procedure: The compounds of the general Formula (I) are particularly effective against powdery mildew. In Table IV the activity of some compounds of the general […] against Erysiphe graminis f. sp. tritici strain are disclosed.
The following test method is used: Glasshouse conditions: temperature 20° C.; relative humidity 80%; strength of illumination 6000 lux. The test plants MV-9 Automn wheat are cultivated in pots diameter 20 cm in a 1:1 mixture of sand and perlite. The average number of plants per pot amounts to 180, the height of the plants is 6-7 cm. About 8 ml of the aqueous suspension of the test compound is applied onto the plants with the aid of a sprayer.
The rate of infectedness is determined after 8 days. Activity is calculated from the percental inhibition values. As control commercial products Fundazol 50 WP and Karathene LC 50 are used.

Row | SMILES | change in vivo at 25 mg/kg [1] | change in vivo at 50 mg/kg [1] | change in vivo at 100 mg/kg [1] | inhibition in vivo at 25 mg/kg [2] | inhibition in vivo at 12.5 mg/kg [3] | inhibition in vivo at 25 mg/kg [3] | inhibition in vivo at 50 mg/kg [3] | ED50 [3] | inhibition in vivo at 100 mg/kg [3] | inhibition at 25 µg/mL [4] | inhibition at 50 µg/mL [4] | inhibition at 100 µg/mL [4] | inhibition at 150 µg/mL [4] | inhibition at 200 µg/mL [4] | inhibition at 400 µg/mL [4] | inhibition at 37.5 µg/mL ([4]; 37.5 μg/ml) | inhibition at 75 µg/mL ([4]; 75 μg/ml) | change in vivo at 12.5 mg/kg ([1]; 12.5 mg/kg p.o.)
1 | Cc1cc(Sc2nc[nH]n2)c2cccc(Cl)c2n1 [Compound 46] | 7% | 18% | 38% | 28.1% | – | – | – | – | – | – | – | – | – | – | – | – | – | –
2 | CCc1nc(Sc2cc(C)nc3ccc(C)cc23)n[nH]1 [Compound 74] | 19% | 26% | 43% | – | 26% | 55% | 69% | 25.7 mg/kg | – | – | – | – | – | – | – | – | – | –
3 | Cc1cc2ccccc2nc1-n1cncn1 [Compound 83, 2-(1H-1,2,4-triazole-1-yl)-3-methyl-quinoline] | 16% | 28% | 59% | 46.7% | 21% | 63% | 70% | 28.1 mg/kg | 72% | – | – | – | – | – | – | – | – | –
4 | COc1cccc2c(-n3cncn3)cc(C)nc12 [Compound 8] | – | – | – | – | – | – | – | – | – | 42.1% | 70.9% | 82% | 84.1% | 91.9% | 98.8% | – | – | –
5 | CCc1nc(Sc2nc3ccc(C)cc3cc2C)n[nH]1 [Compound 138] | 25% | 37% | 82% | 35.2% | – | – | – | – | – | – | – | – | – | – | – | – | – | –
6 | Clc1ccc2c(-n3cncn3)ccnc2c1 [Compound 1, 4-(1H-1,2,4-triazole-1-yl)-7-chloro-quinoline] | – | – | – | – | – | – | – | – | – | – | 72.6% | 85.3% | 36.8% | 90.1% | 99.6% | 50.6% | 83% | –
7 | Cc1nc(Sc2ccnc3cc(Cl)ccc23)n[nH]1 [Compound 61] | 20% | 22% | 26% | 38.2% | 29% | 37% | – | 60.9 mg/kg | 58% | – | – | – | – | – | – | – | – | –
8 | Cc1cc(-n2cncn2)c2cccc(Cl)c2n1 [Compound 10] | – | – | – | – | – | – | – | – | – | 20.3% | 42.8% | 76.4% | – | 92.7% | 90.1% | – | – | –
9 | Cc1cc(Sc2n[nH]c(C)n2)c2cccc(C)c2n1 [Compound 64] | 17% | 39% | 44% | 40.6% | 15% | 27% | 44% | 59.1 mg/kg | 65% | – | – | – | – | – | – | – | – | –
10 | Cc1ccc2cc(C)c(-n3cncn3)nc2c1 [Compound 85] | – | – | – | 28.4% | – | – | – | – | – | – | – | – | – | – | – | – | – | –
11 | Cc1cc(Sc2n[nH]c(C)n2)c2ccccc2n1 [Compound 62] | 19% | 30% | 38% | 40.3% | 18% | 51% | 59% | 38.4 mg/kg | 69% | – | – | – | – | – | – | – | – | 17%
